Values of other authors as cited in patent publication US10130658B2, “Method of ex vivo enhancement of immune cell activity for cancer immunotherapy with a small molecule ablative compound” (Provectus Pharmatech, Inc., priority 2015, dated 2018).

Experiments:
Hela cells = conditions: treated for 1 hour following photodynamic irradiation

SMILES | time to autolyse tumor cells (tumor cells; accumulates in lysosomes of tumor cells) [min] | uptake into normal cells (tumor cells; normal cells) | HMGB1 release (Hela cells)
O=C1OC2(c3cc(I)c(O)c(I)c3Oc3c2cc(I)c(O)c3I)c2c(Cl)c(Cl)c(Cl)c(Cl)c21 [RB, 4,5,6,7-tetrachloro-2′,4′,5′,7′-tetraiodofluorescein] | 30 to 60 | excluded | –
CC(=O)Oc1c(I)cc2c(c1I)Oc1c(cc(I)c(OC(C)=O)c1I)C21OC(=O)c2c(Cl)c(Cl)c(Cl)c(Cl)c21 [rose bengal acetate] | – | – | passively released
